What was measured:
[1] = tested on: B16–F10 murine melanoma cells; test: MTT cell proliferation assay, B16–F10 cells; format: cell-based; settings: Mus musculus, 72 h treatment, untreated control = 100% viability, read-out: IC50, growth inhibition of B16–F10 cells
Protocol: (§1) These studies were performed using a 3-(4,5-dimethylthiazol-2-yl)-2,5-diphenyltetrazolium bromide (MTT) assay, with increasing concentration levels of each compound (0–200 μg/mL). Cell viability was determined after treatment for 72 h, by absorption of a formazan dye.
(§2) […] ATTC HTB-38), Hep G2 human hepatocyte carcinoma cells (ECACC 85011430), nontumor human epithelial lung fibroblast cells HPF (ScienCell catalog (cat.) no. 3300), nontumor rat ileum cells IEC-18 (ECACC no. 88011801), and nontumor human embryo liver cells (ECACC 89121403) were cultured in DMEM medium supplemented with 2 mM glutamine, 10% heat-inactivated fetal bovine serum (FCS), 10.000 units/mL penicillin, and […]. These cells were incubated at 37 °C in an atmosphere of 5% CO2 and 95% humidity. The culture media were changed every 48 h, and the confluent cultures were separated with a trypsin solution (0.25% EDTA). Subconfluent monolayer cells were used in all experiments. All cell lines used were provided by the cell bank of the University of Granada (Spain).
(§3) The effect of the synthesized compounds on the viability of tumor cells was assessed using an MTT assay, based on the ability of living cells to cleave the tetrazolium ring, thus producing formazan, which absorbs at 570 nm. […] For an evaluation of the cytotoxic effects of these compounds, the cells were seeded in 96-well plates at an initial density of 5 × 10^3 B16–F10 cells, 6 × 10^3 HT29 cells, 15 × 10^3 Hep G2 cells, 8 × 10^3 HPF cells, 15 × 10^3 IEC-18 cells, and 11 × 10^3 WRL68 cells, per well. After incubation for 24 h, the cells were treated with the synthesized compounds in triplicate, at different concentrations (0–200 μg/mL), and incubated for 72 h. Thereafter, 100 μL of MTT solution (0.5 mg/mL) were added to each well. After 2 h of incubation, the cells were washed twice with phosphate buffered saline (PBS), and the formazan was resuspended in 100 μL of DMSO. Relative cell viability, with respect to untreated control cells, was measured by absorbance at 550 nm on an ELISA plate reader (Tecan Sunrise MR20-301, TECAN, Austria). […] These experiments were measured and compared to the control after 72 h of treatment.

[2] = tested on: HT29 human colon adenocarcinoma cells; test: MTT cell proliferation assay, HT29 cells; format: cell-based; settings: HT-29, 72 h treatment, untreated control = 100% viability, read-out: IC50, growth inhibition of HT29 cells
Protocol: as §1, §2, §3

[3] = tested on: Hep G2 human hepatocyte carcinoma cells; test: MTT cell proliferation assay, Hep G2 cells; format: cell-based; settings: HepG2, 72 h treatment, untreated control = 100% viability, read-out: IC50, growth inhibition of Hep G2 cells
Protocol: as §1, §2, §3

[4] = tested on: B16-F10, HT29, and Hep G2 cancer cell lines; test: MTT assay, statements over the three cancer cell lines; format: cell-based; settings: 72 h, read-out: IC50 (cytotoxicity), cell line not distinguished
Protocol: as §1, with “dye. […] In these three cancer cell lines, the concentration of the compounds that reduced the response by half (IC50) was determined (Table 1).” for “dye.”
The effect of the synthesized compounds on the viability of tumor cells was assessed using an MTT assay, based on the ability of living cells to cleave the tetrazolium ring, thus producing formazan, which absorbs at 570 nm. The MA conjugates (1–12) were assayed against the selected cancer cell lines. For an evaluation of the cytotoxic effects of these compounds, the cells were seeded in 96-well plates at an initial density of 5 × 10^3 B16–F10 cells, 6 × 10^3 HT29 cells, 15 × 10^3 Hep G2 cells, 8 × 10^3 HPF cells, 15 × 10^3 IEC-18 cells, and 11 × 10^3 WRL68 cells, per well. After incubation for 24 h, the cells were treated with the synthesized compounds in triplicate, at different concentrations (0–200 μg/mL), and incubated for 72 h. […] Relative cell viability, with respect to untreated control cells, was measured by absorbance at 550 nm on an ELISA plate reader (Tecan Sunrise MR20-301, TECAN, Austria). […] These experiments were measured and compared to the control after 72 h of treatment.

SMILES | IC50 [1] | IC50 [2] | IC50 [3] | IC50 [4] | melting point
Cc1cc(=O)oc2cc(NC(=O)[C@]34CCC(C)(C)C[C@H]3C3=CC[C@@H]5[C@@]6(C)C[C@@H](OC(=O)c7cc8ccccc8oc7=O)[C@H](OC(=O)c7cc8ccccc8oc7=O)C(C)(C)[C@@H]6CC[C@@]5(C)[C@]3(C)CC4)ccc12 [Compound 12, N-(4‴-Methyl-2‴-oxo-2‴H-chromen-7‴-yl)-2α,3β-bis((2′-oxo-2′H-chromene-3′-carbonyl)oxy)-olean-12-en-28-amide] | > 10 µM | > 10 µM | > 10 µM | > 10 µM | 206 to 208 °C
CC1(C)CC[C@]2(C(=O)NCCCCCCCCCCNC(=O)Cc3cc(=O)oc4cc(O)ccc34)CC[C@]3(C)C(=CC[C@@H]4[C@@]5(C)C[C@@H](O)[C@H](O)C(C)(C)[C@@H]5CC[C@]43C)[C@@H]2C1 [Compound 6, 2α,3β-Dihydroxy-N-(10′-(2″-(7‴-hydroxy-2‴-oxo-2‴H-chromen-4‴-yl)acetamido)decyl)olean-12-en-28-amide] | > 10 µM | > 10 µM | > 10 µM | – | 120 to 122 °C
CC1(C)CC[C@]2(C(=O)NCCCCCCNC(=O)/C=C/c3ccc(O)cc3)CC[C@]3(C)C(=CC[C@@H]4[C@@]5(C)C[C@@H](O)[C@H](O)C(C)(C)[C@@H]5CC[C@]43C)[C@@H]2C1 [Compound 8, 2α,3β-Dihydroxy-N-(6′-((E)-3″-(4‴-hydroxyphenyl)acrylamido)hexyl)olean-12-en-28-amide] | > 10 µM | > 10 µM | > 10 µM | – | 76 to 78 °C
CC1(C)CC[C@]2(C(=O)NCCCCCCNC(=O)c3cc4ccccc4oc3=O)CC[C@]3(C)C(=CC[C@@H]4[C@@]5(C)C[C@@H](O)[C@H](O)C(C)(C)[C@@H]5CC[C@]43C)[C@@H]2C1 [Compound 2, 2α,3β-Dihydroxy-N-(6′-(2″-oxo-2″H-chromene-3″-carboxamido)hexyl)olean-12-en-28-amide] | > 10 µM | > 10 µM | > 10 µM | – | 73 to 75 °C
Cc1cc(=O)oc2cc(NC(=O)[C@]34CCC(C)(C)C[C@H]3C3=CC[C@@H]5[C@@]6(C)C[C@@H](O)[C@H](O)C(C)(C)[C@@H]6CC[C@@]5(C)[C@]3(C)CC4)ccc12 [Compound 11, 2α,3β-dihydroxy-N-(4-methyl-2-oxo-2H-chromen-7-yl)-olean-12-en-28-amide] | > 10 µM | > 10 µM | > 10 µM | > 10 µM | –
CC1(C)CC[C@]2(C(=O)O)CC[C@]3(C)C(=CC[C@@H]4[C@@]5(C)C[C@@H](O)[C@H](O)C(C)(C)[C@@H]5CC[C@]43C)[C@@H]2C1 [MA (I), 2α,3β-dihydroxyolean-12-en-28-oic acid, reference compound] | > 10 µM | > 10 µM | > 10 µM | – | –
CC1(C)CC[C@]2(C(=O)NCCCCCCNC(=O)Cc3cc(=O)oc4cc(O)ccc34)CC[C@]3(C)C(=CC[C@@H]4[C@@]5(C)C[C@@H](O)[C@H](O)C(C)(C)[C@@H]5CC[C@]43C)[C@@H]2C1 [Compound 5, 2α,3β-Dihydroxy-N-(6′-(2″-(7‴-hydroxy-2‴-oxo-2‴H-chromen-4‴-yl)acetamido)hexyl)olean-12-en-28-amide] | > 10 µM | > 10 µM | > 10 µM | – | 139 to 141 °C
O=C(O)/C=C/c1ccc(O)cc1 [PCA, p-coumaric acid, reference compound] | > 10 µM | > 10 µM | > 10 µM | – | –
O=C(O)c1cc2ccccc2oc1=O [C3CA, coumarin-3-carboxylic acid, reference compound] | > 10 µM | > 10 µM | > 10 µM | – | –
CC1(C)CC[C@]2(C(=O)NCCCCCCCCCCNC(=O)/C=C/c3ccc(O)cc3)CC[C@]3(C)C(=CC[C@@H]4[C@@]5(C)C[C@@H](O)[C@H](O)C(C)(C)[C@@H]5CC[C@]43C)[C@@H]2C1 [Compound 9, 2α,3β-Dihydroxy-N-(10′-((E)-3″-(4‴-hydroxyphenyl)acrylamido)decyl)olean-12-en-28-amide] | > 10 µM | > 10 µM | > 10 µM | – | 104 to 106 °C
O=C(O)Cc1cc(=O)oc2cc(O)ccc12 [HCAA, 7-hydroxycoumarinyl-4-acetic acid, reference compound] | > 10 µM | > 10 µM | > 10 µM | – | –
CC1(C)CC[C@]2(C(=O)NCCCCCCCCCCNC(=O)c3cc4ccccc4oc3=O)CC[C@]3(C)C(=CC[C@@H]4[C@@]5(C)C[C@@H](O)[C@H](O)C(C)(C)[C@@H]5CC[C@]43C)[C@@H]2C1 [Compound 3, 2α,3β-Dihydroxy-N-(10′-(2″-oxo-2″H-chromene-3″-carboxamido)decyl)olean-12-en-28-amide] | > 10 µM | > 10 µM | > 10 µM | – | 86 to 88 °C

From publication PMC8476055, “Synthesis and Biological Activity of Triterpene–Coumarin Conjugates” (Journal of Natural Products, 2021)
